Experimental data from US11998532B1 (priority 2023, dated 2024).
Converted amounts (≈) assume the structure as drawn.

test system: multidrug-resistant (MDR) strains of Mycobacterium tuberculosis; assay: microbe, parasite or virus in culture; type: cell-based; conditions: 192 h, read-out: MIC MDR-TB

Row | Compound | MIC
1 | COc1ccc(Cl)cc1-n1ncc(-c2nnc(-c3ccc(Cl)cc3)o2)c1C [Compound 7a, 2-(1-(5-Chloro-2-methoxyphenyl)-5-methyl-1H-pyrazol-4-yl)-5-(4-chlorophenyl)-1,3,4-oxadiazole] | 16 µg/mL (≈ 39.9 µM)
2 | COc1ccc(Cl)cc1-n1ncc(-c2nnc(-c3ccc(F)cc3)o2)c1C [Compound 7b, 2-(1-(5-Chloro-2-methoxyphenyl)-5-methyl-1H-pyrazol-4-yl)-5-(4-fluorophenyl)-1,3,4-oxadiazole] | 8 µg/mL (≈ 20.8 µM)
3 | COc1ccc(Cl)cc1-n1ncc(-c2nnc(-c3ccc(C)c(Br)c3)o2)c1C [Compound 7c, 2-(3-Bromo-4-methylphenyl)-5-(1-(5-chloro-2-methoxyphenyl)-5-methyl-1H-pyrazol-4-yl)-1,3,4-oxadiazole] | 64 µg/mL (≈ 139 µM)
4 | COc1ccc(Cl)cc1-n1ncc(-c2nnc(-c3ccccc3)o2)c1C [Compound 7d, 2-(1-(5-Chloro-2-methoxyphenyl)-5-methyl-1H-pyrazol-4-yl)-5-phenyl-1,3,4-oxadiazole] | 32 µg/mL (≈ 87.2 µM)
5 | COc1ccc(Cl)cc1-n1ncc(-c2nnc(-c3ccc(Br)cc3)o2)c1C [Compound 7e, 2-(4-Bromophenyl)-5-(1-(5-chloro-2-methoxyphenyl)-5-methyl-1H-pyrazol-4-yl)-1,3,4-oxadiazole] | 16 µg/mL (≈ 35.9 µM)
6 | COc1ccc(Cl)cc1-n1ncc(-c2nnc(-c3ccc(Br)c(C)c3)o2)c1C [Compound 7f, 2-(4-Bromo-3-methylphenyl)-5-(1-(5-chloro-2-methoxyphenyl)-5-methyl-1H-pyrazol-4-yl)-1,3,4-oxadiazole] | 64 µg/mL (≈ 139 µM)
7 | COc1ccc(Cl)cc1-n1ncc(-c2nnc(-c3cccc(F)c3)o2)c1C [Compound 7g, 2-(1-(5-Chloro-2-methoxyphenyl)-5-methyl-1H-pyrazol-4-yl)-5-(3-fluorophenyl)-1,3,4-oxadiazole] | 32 µg/mL (≈ 83.2 µM)
8 | COc1ccc(Cl)cc1-n1ncc(-c2nnc(-c3cc(Cl)cc(Cl)c3)o2)c1C [Compound 7h, 2-(1-(5-Chloro-2-methoxyphenyl)-5-methyl-1H-pyrazol-4-yl)-5-(3,5-dichlorophenyl)-1,3,4-oxadiazole] | 16 µg/mL (≈ 36.7 µM)
9 | COc1ccc(Cl)cc1-n1ncc(-c2nnc(-c3ccc(Cl)c(Cl)c3)o2)c1C [Compound 7i, 2-(1-(5-Chloro-2-methoxyphenyl)-5-methyl-1H-pyrazol-4-yl)-5-(3,4-dichlorophenyl)-1,3,4-oxadiazole] | 32 µg/mL (≈ 73.4 µM)
10 | COc1ccc(Cl)cc1-n1ncc(-c2nnc(-c3ccc(C)c([N+](=O)[O-])c3)o2)c1C [Compound 7j, 2-(1-(5-Chloro-2-methoxyphenyl)-5-methyl-1H-pyrazol-4-yl)-5-(4-methyl-3-nitrophenyl)-1,3,4-oxadiazole] | 64 µg/mL (≈ 150 µM)
